In paper PMC4774911, “Biochemical Screening of Five Protein Kinases from Plasmodium falciparum against 14,000 Cell-Active Compounds” (PLoS ONE, 2016):
Where “and” joins values, the source holds several entries; their conditions need not be identical. Equal values may be shown once.

How the values were obtained:
Assay in all cases: biochemical
MAPK9 = MAPK9 (Homo sapiens, UniProt P45984)
ITK = biological target: T1, ITK (Homo sapiens, UniProt Q08881)
T1 sequence (Q08881 1-620): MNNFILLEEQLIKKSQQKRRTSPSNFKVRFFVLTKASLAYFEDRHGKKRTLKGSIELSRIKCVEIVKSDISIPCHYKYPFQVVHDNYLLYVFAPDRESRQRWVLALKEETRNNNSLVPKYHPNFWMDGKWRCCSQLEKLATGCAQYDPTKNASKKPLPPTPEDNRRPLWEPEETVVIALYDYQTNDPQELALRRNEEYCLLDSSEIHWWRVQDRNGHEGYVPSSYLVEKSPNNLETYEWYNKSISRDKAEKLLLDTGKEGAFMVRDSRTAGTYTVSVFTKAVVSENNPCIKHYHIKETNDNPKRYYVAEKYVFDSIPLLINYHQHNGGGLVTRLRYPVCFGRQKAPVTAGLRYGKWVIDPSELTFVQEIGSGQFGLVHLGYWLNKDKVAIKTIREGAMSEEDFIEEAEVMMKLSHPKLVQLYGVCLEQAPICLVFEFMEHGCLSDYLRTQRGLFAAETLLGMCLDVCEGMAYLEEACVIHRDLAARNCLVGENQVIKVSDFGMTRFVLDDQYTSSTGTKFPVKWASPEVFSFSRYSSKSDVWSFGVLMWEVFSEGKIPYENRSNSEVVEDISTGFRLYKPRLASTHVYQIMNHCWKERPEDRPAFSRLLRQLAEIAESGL

PRKCB = PRKCB (Homo sapiens, UniProt P05771)
Chain of PRKCB (P05771 whole entry): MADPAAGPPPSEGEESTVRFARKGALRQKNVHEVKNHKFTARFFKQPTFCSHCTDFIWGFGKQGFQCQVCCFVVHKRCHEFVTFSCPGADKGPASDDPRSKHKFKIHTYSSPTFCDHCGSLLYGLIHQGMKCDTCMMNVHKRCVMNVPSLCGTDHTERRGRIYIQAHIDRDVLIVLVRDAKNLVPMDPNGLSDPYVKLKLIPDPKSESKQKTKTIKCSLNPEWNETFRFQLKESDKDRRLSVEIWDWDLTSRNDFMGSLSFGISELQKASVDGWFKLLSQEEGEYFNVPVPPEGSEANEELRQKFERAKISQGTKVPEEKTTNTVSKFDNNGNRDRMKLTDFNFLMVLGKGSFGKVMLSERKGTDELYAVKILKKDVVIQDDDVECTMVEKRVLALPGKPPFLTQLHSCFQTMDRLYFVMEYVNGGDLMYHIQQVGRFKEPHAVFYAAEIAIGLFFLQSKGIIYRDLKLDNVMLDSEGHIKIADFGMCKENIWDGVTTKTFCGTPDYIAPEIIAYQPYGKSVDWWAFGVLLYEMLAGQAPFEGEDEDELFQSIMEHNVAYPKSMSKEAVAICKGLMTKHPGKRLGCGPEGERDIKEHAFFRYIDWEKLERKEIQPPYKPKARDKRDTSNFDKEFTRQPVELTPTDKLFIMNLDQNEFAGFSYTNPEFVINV

ACVR1B = biological target: T2, ACVR1B (Homo sapiens, UniProt P36896)
T2 sequence (P36896 1-505): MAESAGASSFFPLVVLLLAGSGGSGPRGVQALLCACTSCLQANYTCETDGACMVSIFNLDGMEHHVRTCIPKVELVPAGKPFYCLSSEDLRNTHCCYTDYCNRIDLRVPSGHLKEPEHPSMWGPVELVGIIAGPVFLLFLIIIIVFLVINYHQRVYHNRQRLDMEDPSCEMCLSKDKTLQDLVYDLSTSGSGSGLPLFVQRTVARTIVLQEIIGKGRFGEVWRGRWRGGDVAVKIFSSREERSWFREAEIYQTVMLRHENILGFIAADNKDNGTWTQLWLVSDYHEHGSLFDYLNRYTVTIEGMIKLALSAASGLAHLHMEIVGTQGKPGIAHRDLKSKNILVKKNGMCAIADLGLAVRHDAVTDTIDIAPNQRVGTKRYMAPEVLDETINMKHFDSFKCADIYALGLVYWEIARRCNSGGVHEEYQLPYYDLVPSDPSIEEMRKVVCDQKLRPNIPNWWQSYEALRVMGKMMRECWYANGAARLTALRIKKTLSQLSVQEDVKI

LIMK1 = LIMK1 (Homo sapiens, UniProt P53667)
Chain of LIMK1 (P53667 whole entry): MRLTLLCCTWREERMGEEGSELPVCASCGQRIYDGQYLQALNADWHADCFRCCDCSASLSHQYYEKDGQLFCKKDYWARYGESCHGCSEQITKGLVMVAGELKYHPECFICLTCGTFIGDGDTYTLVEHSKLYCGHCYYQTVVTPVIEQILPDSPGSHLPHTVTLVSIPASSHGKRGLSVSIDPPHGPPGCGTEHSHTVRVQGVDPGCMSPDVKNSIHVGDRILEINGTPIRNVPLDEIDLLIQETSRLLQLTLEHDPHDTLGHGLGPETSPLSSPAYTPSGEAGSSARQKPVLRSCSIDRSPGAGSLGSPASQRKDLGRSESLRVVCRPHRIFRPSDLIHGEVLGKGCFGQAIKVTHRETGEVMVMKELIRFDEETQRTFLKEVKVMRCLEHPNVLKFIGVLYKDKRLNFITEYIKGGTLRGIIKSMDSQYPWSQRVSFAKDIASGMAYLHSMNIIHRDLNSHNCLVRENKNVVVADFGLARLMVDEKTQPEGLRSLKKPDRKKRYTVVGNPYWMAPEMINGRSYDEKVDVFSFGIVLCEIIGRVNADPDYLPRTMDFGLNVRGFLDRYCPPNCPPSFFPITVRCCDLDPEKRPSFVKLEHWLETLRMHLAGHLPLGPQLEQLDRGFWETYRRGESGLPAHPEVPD

NEK1 = biological target: T3, NEK1 (Homo sapiens, UniProt Q96PY6)
T3 sequence (Q96PY6 1-1258): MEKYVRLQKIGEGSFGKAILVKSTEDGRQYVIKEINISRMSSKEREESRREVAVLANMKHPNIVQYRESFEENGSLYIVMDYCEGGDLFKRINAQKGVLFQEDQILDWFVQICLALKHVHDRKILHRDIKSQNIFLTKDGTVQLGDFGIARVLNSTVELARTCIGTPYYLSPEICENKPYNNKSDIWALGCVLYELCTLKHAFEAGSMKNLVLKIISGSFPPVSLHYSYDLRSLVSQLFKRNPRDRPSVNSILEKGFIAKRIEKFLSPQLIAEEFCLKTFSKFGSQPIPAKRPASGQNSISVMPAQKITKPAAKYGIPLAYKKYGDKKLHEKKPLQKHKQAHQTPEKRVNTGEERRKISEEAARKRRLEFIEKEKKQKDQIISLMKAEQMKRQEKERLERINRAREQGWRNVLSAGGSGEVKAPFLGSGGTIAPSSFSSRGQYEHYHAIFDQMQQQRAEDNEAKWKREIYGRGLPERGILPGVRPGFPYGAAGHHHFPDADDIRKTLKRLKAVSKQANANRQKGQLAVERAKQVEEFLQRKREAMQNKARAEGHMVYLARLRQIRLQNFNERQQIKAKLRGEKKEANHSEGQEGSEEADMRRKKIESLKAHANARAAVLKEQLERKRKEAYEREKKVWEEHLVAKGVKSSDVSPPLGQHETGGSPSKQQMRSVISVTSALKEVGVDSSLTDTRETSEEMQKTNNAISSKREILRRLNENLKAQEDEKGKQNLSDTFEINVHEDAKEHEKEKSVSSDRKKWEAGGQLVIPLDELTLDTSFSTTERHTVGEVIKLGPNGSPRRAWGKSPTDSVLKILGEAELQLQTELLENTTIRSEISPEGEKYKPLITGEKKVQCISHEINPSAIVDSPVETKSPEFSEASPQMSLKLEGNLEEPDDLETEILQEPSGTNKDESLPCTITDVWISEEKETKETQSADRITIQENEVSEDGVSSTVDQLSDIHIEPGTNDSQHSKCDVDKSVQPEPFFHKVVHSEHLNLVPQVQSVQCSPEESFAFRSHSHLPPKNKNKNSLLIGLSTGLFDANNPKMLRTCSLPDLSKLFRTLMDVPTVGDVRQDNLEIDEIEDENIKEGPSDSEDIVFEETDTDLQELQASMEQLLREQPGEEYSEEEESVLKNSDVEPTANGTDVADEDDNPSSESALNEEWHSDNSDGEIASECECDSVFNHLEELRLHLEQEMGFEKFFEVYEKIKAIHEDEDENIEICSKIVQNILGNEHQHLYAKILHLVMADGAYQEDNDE

Chain of MAPK9 (P45984 whole entry): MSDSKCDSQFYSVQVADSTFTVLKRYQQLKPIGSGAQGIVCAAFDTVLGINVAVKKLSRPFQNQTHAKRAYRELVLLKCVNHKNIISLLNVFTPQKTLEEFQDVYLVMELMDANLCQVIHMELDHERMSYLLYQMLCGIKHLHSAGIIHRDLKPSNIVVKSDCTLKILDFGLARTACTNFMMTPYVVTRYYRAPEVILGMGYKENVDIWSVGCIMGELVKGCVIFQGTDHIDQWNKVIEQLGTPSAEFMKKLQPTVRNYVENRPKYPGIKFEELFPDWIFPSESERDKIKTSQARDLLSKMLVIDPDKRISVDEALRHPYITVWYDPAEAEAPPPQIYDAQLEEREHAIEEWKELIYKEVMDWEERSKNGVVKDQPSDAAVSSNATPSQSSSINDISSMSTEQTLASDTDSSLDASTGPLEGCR

| SMILES | IC50 (MAPK9) | IC50 (ITK) [nM] | IC50 (PRKCB) | IC50 (ACVR1B) [nM] | IC50 (LIMK1) [nM] | IC50 (NEK1) |
| --- | --- | --- | --- | --- | --- | --- |
| CN1CCN(c2ccc(Nc3ncc(C#N)c(Nc4ccccc4C(N)=O)n3)cc2)CC1.Cl [TCMDC-134116] | 1100 nM and 1000 nM | 140 | 870 nM | 4000 | 220 | 570 nM and 470 nM |
| Cl.NCC1(c2nc(-c3ccc(Cl)c(O)c3)c(-c3ccncc3)[nH]2)CCCCC1 [TCMDC-141154] | 1700 nM | > 20000 | 12000 nM and 5900 nM | 590 | > 20000 | > 20000 nM |
| CN(C)CC(O)COc1ccc(Nc2ncc([N+](=O)[O-])c(Nc3ccccc3O)n2)cc1.O=C(O)C(F)(F)F (stereo not drawn) [TCMDC-141399] | > 20000 nM | 1700 | > 20000 nM | > 20000 | > 20000 | 6400 nM |
